The text below walks through data of patent publication US20190017060A1, “MANIPULATION OF PROANTHOCYANIDIN (PA) COMPOSITION BY AFFECTING ANTHOCYANIDIN SYNTHASE (ANS) AND LEUCOANTHOCYANIDIN DIOXYGENASE (LDOX)” (University of North Texas, priority 2017, published 2019).

What all share (assay type): biochemical, Medicago truncatula
For one experiment, the system named is ANS and ANR proteins. The experiment is described as follows: Combined enzyme reaction of ANS with ANR. The note with it: 200 μM substrate, 10 mM NADPH, 50 μg ANS and ANR proteins, HPLC at 280 nm. Here is the method:
(§1) It was previously reported that ANS can convert leucocyanidin to cyanidin. To confirm this, separate enzyme reactions were set up for ANS and LDOX by incubating with leucocyanidin according to Tanner et al. The enzyme reaction was prepared in 100 μL volume including 20 mM potassium phosphate buffer (pH 7.0), 1 mM 2-oxoglutarate, 0.4 mM ammonium iron(II) sulfate, 4 mM sodium ascorbate, 100 mM NaCl, 10 mM maltose, 5 mM DTT and 50 μg recombinant proteins. The reactions were carried out for 1 h at 30° C. and terminated by addition of 1 μL 36% HCl and 10 μL 100% methanol. The reaction mixture was centrifuged for 5 min at 13,000 rpm at 4° C. and analyzed by HPLC. All reverse-phase HPLC analyses were performed on an Agilent HP1100 HPLC using the following gradient: solvent A (1% phosphoric acid) and B (acetonitrile) at 1 ml/min flow rate: 0-5 min, 5% B; 5-10 min, 5-10% B; 10-25 min, 10-17% B; 25-30 min, 17-23% B; 30-65 min, 23-50% B; 65-79 min, 50-100% B; 79-80 min, 100-5% B. Data were collected at 280 and 530 nm for flavonoids and anthocyanidins, respectively. Identifications were based on chromatographic behavior and UV spectra compared with those of authentic standards.
(§2) Next, the combined reaction of ANS or LDOX with ANR was tested to check if (+)-catechin can be converted to (−)-epicatechin, which is the almost exclusive monomer unit of PA polymers in Medicago truncatula. […]

The subject of a further experiment is LDOX. Description: Enzyme assay with recombinant LDOX protein, HPLC detection of cyanidin. The note with it: 50 μg recombinant protein, 1 h at 30° C., HPLC at 530 nm; flavan-3-ols at 200 μM. As for the experimental part:
(§3) The full length ANS and LDOX cDNAs were cloned into pMal-c5x vector (New England Biolabs) at the SalI and BamHI site and BamHI and EcoRI site, respectively. The expression constructs were transformed into E. coli strain NEB® Express Competent E. coli (New England Biolabs). Transformed bacteria were grown in LB medium supplemented with 0.2% glucose to OD 600 of 0.5, and IPTG was added at 0.3 mM to induce protein expression. Bacteria were harvested after 4 h induction. ANS and LDOX proteins were purified with amylose resin (NEB, E8021) following the manufacturer's protocol. Briefly, bacteria were lysed by sonication at 4° C. in extraction buffer (20 mM Tris pH 7.0, 200 mM NaCl, 1 mM DTT). The bacterial lysates were centrifuged at 12,000 g for 15 min at 4° C. The supernatants were loaded on amylose resin which was washed with wash buffer (extraction buffer). Finally, proteins were eluted by elution buffer (20 mM Tris pH 7.0, 200 mM NaCl, 1 mM DTT, 10 mM maltose). Purified proteins were concentrated with an Amicon® Ultra-4 Centrifugal Filter (Millipore) and aliquoted to store at −80° C.
as §1
(§4) Since catechin was highly accumulated in the ldox mutant, it was tested whether ANS or LDOX protein can react with (+)-catechin (2R, 3S), which is stated as a naturally synthesized monomeric unit of PAs. The same enzyme reaction was set up but using 200 μM of (+)-catechin as substrate instead of leucocyanidin. Reactions without 2-oxoglutarate (-oxo) were run as negative controls. […] The enzyme reaction was performed with (+)-catechin as substrate and recombinant ANS or LDOX protein. Arrowhead indicates the peak for cyanidin (Cy) standard. Reactions without 2-oxoglutarate were run as negative controls and are denoted as -oxo. […] The enzyme assay was performed with (−)-catechin, (−)-epicatechin or (+)-epicatechin as substrate and purified recombinant ANS or LDOX protein. The substrate in each reaction is indicated. (−)-cat, (−)-catechin; (−)-epi, (−)-epicatechin; (+)-epi, (+)-epicatechin. […] The gray arrow denotes the catalyzed reaction in vitro. The proteins used are indicated in each chromatogram.

The subject of a further experiment is ANS. The experiment is described as follows: Enzyme assay with recombinant ANS protein, HPLC detection of cyanidin. The note with it: 50 μg recombinant protein, 1 h at 30° C., HPLC at 530 nm; flavan-3-ols at 200 μM. Here is the method: as §3, §1, §4
The subject of the next experiment is LDOX and ANR proteins. The experiment is described as follows: Combined enzyme reaction of LDOX with ANR. The note with it: 200 μM substrate, 10 mM NADPH, 50 μg LDOX and ANR proteins, HPLC at 280 nm. As for the experimental part: as §1, §2

As for `Oc1cc(O)c2c(c1)O[C@H](c1ccc(O)c(O)c1)[C@@H](O)C2` [(+)-catechin], the “(+)-catechin converted to epicatechin” value was “more than 70%” in the experiment with ANS and ANR proteins; “more than 70%” in the experiment with LDOX and ANR proteins. In addition, the “in vitro conversion of substrate to cyanidin by LDOX” value (from here on “in vitro conversion … by LDOX”) with LDOX is recorded as “catalyze the in vitro conversion of (+)-catechin to cyanidin”. The “in vitro conversion of substrate to cyanidin by ANS” value (“in vitro conversion … by ANS” below) in the experiment with ANS is listed as “catalyze the in vitro conversion of (+)-catechin to cyanidin”.

Turning to `Oc1cc(O)c2c(c1)O[C@@H](c1ccc(O)c(O)c1)[C@@H](O)C2` [(+)-epicatechin], the “in vitro conversion … by LDOX” value with LDOX is given as “No cyanidin generation was detected”. Also, the “in vitro conversion … by ANS” value with ANS is given as “No cyanidin generation was detected”.

For the molecule `Oc1cc(O)c2c(c1)O[C@H](c1ccc(O)c(O)c1)[C@H](O)C2` [(−)-epicatechin], the “in vitro conversion … by LDOX” value in the experiment with LDOX is listed as “No cyanidin generation was detected”. Further, the “in vitro conversion … by ANS” value with ANS was “No cyanidin generation was detected”.

For `Oc1cc(O)c2c(c1)OC(c1ccc(O)c(O)c1)C(O)C2O` (stereo not drawn) [leucocyanidin], in the experiment on LDOX, the “in vitro conversion … by LDOX” value is reported as “catalyzed in vitro conversion of leucocyanidin to cyanidin”. The “in vitro conversion … by ANS” value in the experiment with ANS is “catalyzed in vitro conversion of leucocyanidin to cyanidin”.

Regarding (−)-catechin, the “in vitro conversion … by LDOX” value with LDOX is “No cyanidin generation was detected”. For the same molecule, in the experiment on ANS, the “in vitro conversion … by ANS” value is on record as “No cyanidin generation was detected”.
